{
  "source": "paper PMC11042424",
  "about": "“Development of a First-in-Class RIPK1 Degrader to Enhance Antitumor Immunity” (Research Square, 2024)",
  "system": "B16F10 tumors",
  "assay": "B16F10 syngeneic tumor model with anti-PD1",
  "format": "in vivo",
  "protocol": "Figure 4 LD4172 synergizes with Anti-PD1 to inhibit tumor growth. A, Plasma concentrations of LD4172 in C57BL/6J mice administered 1 mg/kg intravenously (i.v.) or 10 mg/kg intraperitoneally (i.p.) (n=4). B, Representative immunoblots of RIPK1 in different tissues of C57BL/6J mice treated with LD4172 (n=3–4). C, Densitometric analysis of RIPK1 protein levels in different tissues (n=3 or 4). D, Representative immunoblots of RIPK1 levels of B16F10 cells transduced with gRNA specific for RIPK1 or non-targetable control (sgNC). E, B16F10-RIPK1-KO tumors sensitized to anti-PD1 treatment: 3×10^5 B16F10 cells transduced with gRNA specific for RIPK1 or non-targetable control (sgNC) were inoculated into C57BL/6J mice. After seven days, mice with measurable tumors (~100 mm3) were randomly treated with or without anti-PD1 in vivo (100 μg per dose, i.p., every three days, n=8). F, Tumor growth curve of mice with B16F10 tumors treated with LD4172 and/or anti-PD1 (n=8). C57B6/J mice were subcutaneously inoculated with 3×10^5 B16F10 tumor cells. After seven days (tumor size ~ 100 mm3), mice were treated every three days with anti- PD1 (100 μg per dose, i.p.), daily with LD4172 (20 mg/kg, i.p.), a combination of LD4172 and anti-PD1 (same dose as their individual doses), or their corresponding vehicle control. G, Kaplan-Meier survival curve for all experimental groups. H, Final tumor weight (g) from F after 22d of treatment (n=8). I, Representative images of B16F10 tumors collected at the end of treatment. J, Mouse body weight (n=8). K, Tumor growth curve of mice with B16F10 tumors treated with T2I and/or anti-PD1 (n=8). The experimental conditions and treatment regimens were the same as F except using the RIPK1 kinase inhibitor T2I (20 mg/kg, i.p.) to replace LD4172. Representative data from at least three independent experiments are shown. Data are expressed as the mean ± SEM. * p<0.05; ** p<0.01; *** p<0.001, **** p<0.0001, respectively. ns, indicates no statistical significance.\nTo establish a syngeneic mouse model, 3× 10^5 B16F10 cells resuspended in PBS were mixed 1:1 by volume with Matrigel (354262, Corning) and subcutaneously injected into the right flank of seven-week-old wild-type female C57BL/6J mice on day 0. Treatments were started on day 7 when the tumor volume reached approximately 100 mm^3. Antibodies were administered in 100μL volumes and injected intraperitoneally every three days for the following: anti-PD1 (100 μg, BE0146, BioXcell) and anti-CD8 (500 μg, BE0004, BioXcell). The RIPK1 degrader LD4172 and RIPK1 kinase inhibitor T2I were delivered in 200 μL of vehicle solution (30% PEG400, 5% Tween-80, 5% DMSO) once daily (20 mg/kg, i.p. injection). […] Tumors were measured every three days beginning on day 7 after the challenge until death. […]",
  "data": [
    {"smiles": "Cc1ncsc1-c1ccc([C@H](C)NC(=O)[C@@H]2C[C@@H](O)CN2C(=O)[C@@H](NC(=O)CCCCCCCCCCC(=O)NCCCn2cc(-c3ccc4c(c3)CCN4C(=O)Cc3cccc(OC(F)(F)F)c3)c3c(N)ncnc32)C(C)(C)C)cc1", "note": "[LD4172]", "values": [
      {"measurement": "tumor response in combination with anti-PD1", "setting": "B16F10 tumors, 20 mg/kg i.p. daily plus anti-PD1 100 μg i.p. every three days", "value": "sensitized B16F10 tumors to anti-PD1 therapy"},
      {"measurement": "tumor progression, single agent", "setting": "B16F10 tumors, LD4172 20 mg/kg i.p. daily, anti-PD1 100 μg i.p. every three days", "value": "tumor progression similar to that of the untreated mice"},
      {"measurement": "mouse body weight", "setting": "long-term administration", "value": "no impact on mouse body weight"}
    ]}
  ]
}
